Assay results as given in patent US20250230155A1 (Vanderbilt University, priority 2021, published 2025).

Molecular target: T1, human mAChR M4 (Homo sapiens, UniProt P08173)
T1 construct: expressed in transfected cells
T1 sequence (P08173 1-479): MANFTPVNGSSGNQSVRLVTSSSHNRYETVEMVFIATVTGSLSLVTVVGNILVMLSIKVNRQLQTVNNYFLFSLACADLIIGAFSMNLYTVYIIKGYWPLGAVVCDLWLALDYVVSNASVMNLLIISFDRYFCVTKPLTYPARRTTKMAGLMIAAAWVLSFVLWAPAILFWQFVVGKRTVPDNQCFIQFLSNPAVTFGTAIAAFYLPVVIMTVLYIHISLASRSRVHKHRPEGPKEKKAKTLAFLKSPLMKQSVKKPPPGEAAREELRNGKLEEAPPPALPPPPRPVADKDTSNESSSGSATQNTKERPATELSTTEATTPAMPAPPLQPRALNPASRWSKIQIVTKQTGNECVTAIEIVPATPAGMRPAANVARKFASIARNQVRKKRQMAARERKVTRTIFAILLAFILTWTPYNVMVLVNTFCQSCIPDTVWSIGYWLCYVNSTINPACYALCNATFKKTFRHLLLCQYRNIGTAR
Assay: mAChR M4 cell-based functional assay (calcium mobilization, CHO-K1 hM4-Gqi5 cells)
Conditions: for Emax at 30 µM: CHO-K1, % ACh maximum at 30 μM, human M4; for EC50: positive allosteric modulator activity, increase in the EC20 acetylcholine response, CHO-K1 hM4-Gqi5 cells, read-out: Human M4 EC50
How it was run: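 Fluorescent calcium read-out (Fluo-4 AM, FDSS, 1 Hz) in hM4-Gqi5 CHO-K1 cells, 11-point 1:3 compound series. Agonism scored on compound addition, PAM activity as increase of the 144 s EC20 acetylcholine response, antagonism as decrease of the 230 s EC80 response; four-parameter logistic fits give EC50 and Emax.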

Row | Structure (SMILES) | Emax at 30 µM [%] | EC50 [nM]
1 | Cc1cc(C(=O)N2CCCn3nccc32)nnc1N1CCc2ncc(C(F)(F)F)cc2C1 [Example 503, (6,7-dihydropyrazolo[1,5-a]pyrimidin-4(5H)-yl)(5-methyl-6-(3-(trifluoromethyl)-7,8-dihydro-1,6-naphthyridin-6(5H)-yl)pyridazin-3-yl)methanone] | 103 | 4080
2 | Cc1cc(C(=O)N2CC3CC3C2)nnc1N1CCc2ncc(C(F)(F)F)cc2C1 (stereo not drawn) [Example 504, (3-azabicyclo[3.1.0]hexan-3-yl)(5-methyl-6-(3-(trifluoromethyl)-7,8-dihydro-1,6-naphthyridin-6(5H)-yl)pyridazin-3-yl)methanone] | 101 | 3870
3 | [2H]C([2H])(NC(=O)c1cc(C)c(N2CCc3ncc(C(F)(F)F)cc3C2)nn1)c1ccncc1 [Example 505, 5-methyl-N-(pyridin-4-ylmethyl-d2)-6-(3-(trifluoromethyl)-7,8-dihydro-1,6-naphthyridin-6(5H)-yl)pyridazine-3-carboxamide] | 112 | 21
4 | Cc1cc(C(=O)N(C)Cc2ccncc2)nnc1N1CCc2ncc(C(F)(F)F)cc2C1 [Example 506, N,5-dimethyl-N-(pyridin-4-ylmethyl)-6-(3-(trifluoromethyl)-7,8-dihydro-1,6-naphthyridin-6(5H)-yl)pyridazine-3-carboxamide] | 84 | 2810
5 | [2H]C([2H])(NC(=O)c1cc(C)c(N2CCc3ncc(C(F)(F)F)cc3C2)nn1)c1cscn1 [Example 507, 5-methyl-N-(thiazol-4-ylmethyl-d2)-6-(3-(trifluoromethyl)-7,8-dihydro-1,6-naphthyridin-6(5H)-yl)pyridazine-3-carboxamide] | 81 | 43
6 | [2H]C([2H])(NC(=O)c1cc(C)c(N2CCc3ncc(N4CCCn5nccc54)cc3C2)nn1)c1cscn1 [Example 508, 6-(3-(6,7-dihydropyrazolo[1,5-a]pyrimidin-4(5H)-yl)-7,8-dihydro-1,6-naphthyridin-6(5H)-yl)-5-methyl-N-(thiazol-4-ylmethyl-d2)pyridazine-3-carboxamide] | 82 | 13
7 | [2H]C([2H])(NC(=O)c1cc(C)c(N2CCc3ncc(N4CCCn5nccc54)cc3C2)nn1)c1ccncc1 [Example 509, 6-(3-(6,7-dihydropyrazolo[1,5-a]pyrimidin-4(5H)-yl)-7,8-dihydro-1,6-naphthyridin-6(5H)-yl)-5-methyl-N-(pyridin-4-ylmethyl-d2)pyridazine-3-carboxamide] | 104 | 12
8 | O=C(NCc1cncs1)c1ccc(N2CCc3ncc(C(F)(F)F)cc3C2)nn1 [Example 510, N-(thiazol-5-ylmethyl)-6-(3-(trifluoromethyl)-7,8-dihydro-1,6-naphthyridin-6(5H)-yl)pyridazine-3-carboxamide] | 81 | 855
9 | O=C(NCc1ccncc1)c1ccc(N2CCc3ncc(C(F)(F)F)cc3C2)nn1 [Example 511, N-(pyridin-4-ylmethyl)-6-(3-(trifluoromethyl)-7,8-dihydro-1,6-naphthyridin-6(5H)-yl)pyridazine-3-carboxamide] | 75 | 3160
10 | Cc1cc(C(=O)N2Cc3ccncc3C2)nnc1N1CCc2ncc(N3CCCn4nccc43)cc2C1 [Example 512, (1,3-dihydro-2H-pyrrolo[3,4-c]pyridin-2-yl)(6-(3-(6,7-dihydropyrazolo[1,5-a]pyrimidin-4(5H)-yl)-7,8-dihydro-1,6-naphthyridin-6(5H)-yl)-5-methylpyridazin-3-yl)methanone] | 95 | 19
11 | Cc1cc(C(=O)N2Cc3cccnc3C2)nnc1N1CCc2ncc(N3CCCn4nccc43)cc2C1 [Example 513, (5,7-dihydro-6H-pyrrolo[3,4-b]pyridin-6-yl)(6-(3-(6,7-dihydropyrazolo[1,5-a]pyrimidin-4(5H)-yl)-7,8-dihydro-1,6-naphthyridin-6(5H)-yl)-5-methylpyridazin-3-yl)methanone] | 90 | 51
12 | Cc1cc(C(=O)N2CCN(C)CC2)nnc1N1CCc2ncc(N3CCCn4nccc43)cc2C1 [Example 514, (6-(3-(6,7-dihydropyrazolo[1,5-a]pyrimidin-4(5H)-yl)-7,8-dihydro-1,6-naphthyridin-6(5H)-yl)-5-methylpyridazin-3-yl)(4-methylpiperazin-1-yl)methanone] | 103 | 635
13 | Cc1cc(C(=O)N2CCOCC2)nnc1N1CCc2ncc(N3CCCn4nccc43)cc2C1 [Example 515, (6-(3-(6,7-dihydropyrazolo[1,5-a]pyrimidin-4(5H)-yl)-7,8-dihydro-1,6-naphthyridin-6(5H)-yl)-5-methylpyridazin-3-yl)(morpholino)methanone] | 107 | 197
14 | Cc1cc(C(=O)NCc2cncs2)nnc1N1CCc2ncc(-c3ccnn3C)cc2C1 [Example 516, 5-methyl-6-(3-(1-methyl-1H-pyrazol-5-yl)-7,8-dihydro-1,6-naphthyridin-6(5H)-yl)-N-(thiazol-5-ylmethyl)pyridazine-3-carboxamide] | 102 | 31
15 | Cc1cc(C(=O)N2CC(c3ccncc3)C2)nnc1N1CCc2ncc(N3CCCn4nccc43)cc2C1 [Example 517, (6-(3-(6,7-dihydropyrazolo[1,5-a]pyrimidin-4(5H)-yl)-7,8-dihydro-1,6-naphthyridin-6(5H)-yl)-5-methylpyridazin-3-yl)(3-(pyridin-4-yl)azetidin-1-yl)methanone] | 76 | 12
16 | Cc1cc(C(=O)N2CC(N(C)C)C2)nnc1N1CCc2ncc(N3CCCn4nccc43)cc2C1 [Example 518, (6-(3-(6,7-dihydropyrazolo[1,5-a]pyrimidin-4(5H)-yl)-7,8-dihydro-1,6-naphthyridin-6(5H)-yl)-5-methylpyridazin-3-yl)(3-(dimethylamino)azetidin-1-yl)methanone] | 102 | 32
17 | Cc1cc(C(=O)N2CC(C)(C#N)C2)nnc1N1CCc2ncc(N3CCCn4nccc43)cc2C1 [Example 519, 1-(6-(3-(6,7-dihydropyrazolo[1,5-a]pyrimidin-4(5H)-yl)-7,8-dihydro-1,6-naphthyridin-6(5H)-yl)-5-methylpyridazine-3-carbonyl)-3-methylazetidine-3-carbonitrile] | 80 | 14
18 | Cc1cc(C(=O)NC2CN(CC(F)(F)F)C2)nnc1N1CCc2ncc(N3CCCn4nccc43)cc2C1 [Example 520, 6-(3-(6,7-dihydropyrazolo[1,5-a]pyrimidin-4(5H)-yl)-7,8-dihydro-1,6-naphthyridin-6(5H)-yl)-5-methyl-N-(1-(2,2,2-trifluoroethyl)azetidin-3-yl)pyridazine-3-carboxamide] | 104 | 43
19 | Cc1cc(C(=O)N2CCC(c3ccncc3)C2)nnc1N1CCc2ncc(N3CCCn4nccc43)cc2C1 (stereo not drawn) [Example 521, (6-(3-(6,7-dihydropyrazolo[1,5-a]pyrimidin-4(5H)-yl)-7,8-dihydro-1,6-naphthyridin-6(5H)-yl)-5-methylpyridazin-3-yl)(3-(pyridin-4-yl)pyrrolidin-1-yl)methanone] | 99 | 98
20 | Cc1cc(C(=O)N2CC(C(F)F)C2)nnc1N1CCc2ncc(C(F)(F)F)cc2C1 [Example 522, (3-(difluoromethyl)azetidin-1-yl)(5-methyl-6-(3-(trifluoromethyl)-7,8-dihydro-1,6-naphthyridin-6(5H)-yl)pyridazin-3-yl)methanone] | 109 | 168
21 | Cc1cc(C(=O)NC2(C#N)CC2)nnc1N1CCc2ncc(C(F)(F)F)cc2C1 [Example 523, N-(1-cyanocyclopropyl)-5-methyl-6-(3-(trifluoromethyl)-7,8-dihydro-1,6-naphthyridin-6(5H)-yl)pyridazine-3-carboxamide] | 109 | 74
22 | Cc1cc(C(=O)N2CC(C(F)F)C2)nnc1N1CCc2ncc(N3CCCn4nccc43)cc2C1 [Example 524, (3-(difluoromethyl)azetidin-1-yl)(6-(3-(6,7-dihydropyrazolo[1,5-a]pyrimidin-4(5H)-yl)-7,8-dihydro-1,6-naphthyridin-6(5H)-yl)-5-methylpyridazin-3-yl)methanone] | 93 | 18
23 | Cc1cc(C(=O)NC2(C#N)CC2)nnc1N1CCc2ncc(N3CCCn4nccc43)cc2C1 [Example 525, N-(1-cyanocyclopropyl)-6-(3-(6,7-dihydropyrazolo[1,5-a]pyrimidin-4(5H)-yl)-7,8-dihydro-1,6-naphthyridin-6(5H)-yl)-5-methylpyridazine-3-carboxamide] | 82 | 11
24 | Cc1cc(C(=O)N2CC(c3cccnc3)C2)nnc1N1CCc2ncc(N3CCCn4nccc43)cc2C1 [Example 526, (6-(3-(6,7-dihydropyrazolo[1,5-a]pyrimidin-4(5H)-yl)-7,8-dihydro-1,6-naphthyridin-6(5H)-yl)-5-methylpyridazin-3-yl)(3-(pyridin-3-yl)azetidin-1-yl)methanone] | 116 | 17
